Reference: patent US20150291565A1, “INDOLE COMPOUNDS AND THEIR USE AS ANTIMICROBIALS” (Memorial Sloan-Kettering Cancer Center, priority 2012, published 2015)
Converted amounts (≈) assume the structure as drawn. Where two headings read alike, the source gives them in different places.

Columns and labels:
K. pneumoniae ATCC 13883 = test: Broth dilution MIC, K. pneumoniae ATCC 13883; assay type: cell-based; conditions: Klebsiella pneumoniae
M. smegmatis (mc2155) = test: Disk diffusion assay, zone of inhibition, M. smegmatis; assay type: cell-based; conditions: disk diffusion zone of inhibition
E. coli ECM 1694 = test: Broth dilution MIC, E. coli ECM 1694; assay type: cell-based; conditions: Escherichia coli
[1] = test system: E. faecalis ATCC 29212 (VRE); test: Broth dilution MIC, E. faecalis ATCC 29212; assay type: cell-based
[2] = test system: S. aureus ATCC 29213 (MSSA); test: Broth dilution MIC, S. aureus ATCC 29213; assay type: cell-based; conditions: Staphylococcus aureus
[3] = test system: S. pneumoniae ATCC 6301 (PSSP); test: Broth dilution MIC, S. pneumoniae ATCC 6301; assay type: cell-based; conditions: Streptococcus pneumoniae
E. coli ATCC 25922 = test: Broth dilution MIC, E. coli ATCC 25922; assay type: cell-based; conditions: Escherichia coli
E. faecium CT-26 = test: Broth dilution MIC, E. faecium CT-26; assay type: cell-based; conditions: Enterococcus faecium
S. aureus BAA-39 (MDR) = test: Broth dilution MIC, S. aureus BAA-39; assay type: cell-based; conditions: for MIC: Staphylococcus aureus, BAA39
[4] = test system: S. pneumoniae ATCC 700674 (PRSP); test: Broth dilution MIC, S. pneumoniae ATCC 700674; assay type: cell-based; conditions: Streptococcus pneumoniae
P. aeruginosa ATCC 9027 = test: Broth dilution MIC, P. aeruginosa ATCC 9027; assay type: cell-based; conditions: Pseudomonas aeruginosa
[5] = test system: S. aureus ATCC 33591 (MRSA); test: Broth dilution MIC, S. aureus ATCC 33591; assay type: cell-based; conditions: for MIC: Staphylococcus aureus
C. albicans ATCC 14053 = test: Broth dilution MIC, C. albicans ATCC 14053; assay type: cell-based; conditions: Candida albicans, ATCC14053; Table 1; range 64 down to 0.12 μg/ml
Description: In vitro Anti-bacterial & Anti-fungal Activity Assay: All test compounds were prepared as 6.4 mg/ml stock solutions in DMSO and further diluted according to the NCCLS M7-A6 (Page 5) document with sterile water or appropriate diluent. A working stock of 256 μg/ml was used to do 1:2 serial dilutions in 96-well plates. […] The inoculums were prepared by making a direct sterile water suspension of isolated colonies from 18 to 24 hr agar plates for all organisms (Mueller Hinton, Blood Agar or SDA plates). Each bacterial suspension was adjusted to read between 0.09 and 0.11 absorbance at 620 nm. […] These were further diluted 1/100 in appropriate broth for inoculating the 96-well plates. The C. albicans suspension was adjusted to read between 70 and 75% Transmittance at 530 nm and then diluted 1/500 in RPMI+MOPS broth. All aerobic bacterial and fungal plates were incubated for 18 hrs. at 35° C. […] Plates were read using a Beckman Automated Plate Reader at 650 nm. Readings were confirmed by visual examination of plates. (See Table 1, Table 2, Table 3, and Table 4). […] It is important to note that positive results against C. albicans are often indicative of broad spectrum antifungal activity, while negative results are not necessarily conclusory of a lack of activity against other fungus.

MRSA = test: Disk diffusion assay, zone of inhibition, MRSA; assay type: cell-based, Staphylococcus aureus; conditions: disk diffusion zone of inhibition
[6] = test system: E. faecium ATCC 700221 (VRE); test: Broth dilution MIC, E. faecium ATCC 700221; assay type: cell-based
K. pneumoniae ATCC 51503 = test: Broth dilution MIC, K. pneumoniae ATCC 51503; assay type: cell-based; conditions: Klebsiella pneumoniae
[7] = ATCC13883, Table 1, range 64 down to 0.12 μg/ml, read-out: MIC K. pneumoniae ATCC 13883
[8] = ATCC13883, Table 2, broth dilution MIC in ug/ml, read-out: MIC K pneumonia ATCC 13883
[9] = ECM1694, Table 1, range 64 down to 0.12 μg/ml, read-out: MIC E. coli ECM 1694
[10] = ECM1694, Table 2, broth dilution MIC in ug/ml, read-out: MIC E. coli ECM 1693
[11] = Table 2, broth dilution MIC in ug/ml, read-out: MIC E faecalis ATCC 29212 VRE
[12] = Table 1, range 64 down to 0.12 μg/ml, read-out: MIC S. aureus ATCC 29213
[13] = Table 2, broth dilution MIC in ug/ml, read-out: MIC S aureus ATCC 29213 MSSA
[14] = ATCC6301, Table 1, range 64 down to 0.12 μg/ml, read-out: MIC S. pneumoniae ATCC 6301
[15] = ATCC6301, Table 2, broth dilution MIC in ug/ml, read-out: MIC S pneumonia ATCC 6301 PSSP
[16] = ATCC 25921 / ATCC 25922, Table 2, broth dilution MIC in ug/ml, read-out: MIC E. coli ATCC 25921
[17] = ATCC25922, Table 1, range 64 down to 0.12 μg/ml, read-out: MIC E. coli ATCC 25922
[18] = CT26, Table 1, range 64 down to 0.12 μg/ml, read-out: MIC E. faecium CT-26
[19] = CT26, Table 2, broth dilution MIC in ug/ml, read-out: MIC E faecium CT-25
[20] = Table 1, range 64 down to 0.12 μg/ml, read-out: MIC S. aureus BAA-39
[21] = Table 2, broth dilution MIC in ug/ml, read-out: MIC S aureus BAA-39 MDR
[22] = Table 1, range 64 down to 0.12 μg/ml, read-out: MIC S. pneumoniae ATCC 700674
[23] = Table 2, broth dilution MIC in ug/ml, read-out: MIC S pneumonia ATCC 700674 PRSP
[24] = ATCC 9026 / ATCC 9027, Table 2, broth dilution MIC in ug/ml, read-out: MIC P aeruginosa ATCC 9026
[25] = ATCC9027, Table 1, range 64 down to 0.12 μg/ml, read-out: MIC P. aeruginosa ATCC 9027
[26] = Table 1, range 64 down to 0.12 μg/ml, read-out: MIC S. aureus ATCC 33591
[27] = Table 2, broth dilution MIC in ug/ml, read-out: MIC S aureus ATCC 33591 MRSA
[28] = Enterococcus faecium, Table 1, range 64 down to 0.12 μg/ml, read-out: MIC E. faecium ATCC 700221
[29] = Table 2, broth dilution MIC in ug/ml, read-out: MIC E faecium ATCC 700221 VRE
[30] = ATCC51503, Table 1, range 64 down to 0.12 μg/ml, read-out: MIC K. pneumoniae ATCC 51503
[31] = ATCC51503, Table 2, broth dilution MIC in ug/ml, read-out: MIC K pneumonia ATCC 51503

Row | SMILES | MIC (K. pneumoniae ATCC 13883; [7]) [µg/mL] | MIC (K. pneumoniae ATCC 13883; [8]) [µg/mL] | Zone Size M. smegmatis (M. smegmatis (mc2155)) [mm] | MIC (E. coli ECM 1694; [9]) [µg/mL] | MIC (E. coli ECM 1694; [10]) [µg/mL] | MIC [1, 11] [µg/mL] | MIC [2, 12] [µg/mL] | MIC [2, 13] [µg/mL] | MIC [3, 14] [µg/mL] | MIC [3, 15] [µg/mL] | MIC (E. coli ATCC 25922; [16]) [µg/mL] | MIC (E. coli ATCC 25922; [17]) [µg/mL] | MIC (E. faecium CT-26; [18]) [µg/mL] | MIC (E. faecium CT-26; [19]) [µg/mL] | MIC (S. aureus BAA-39 (MDR); [20]) [µg/mL] | MIC (S. aureus BAA-39 (MDR); [21]) [µg/mL] | MIC [4, 22] [µg/mL] | MIC [4, 23] [µg/mL] | MIC (P. aeruginosa ATCC 9027; [24]) [µg/mL] | MIC (P. aeruginosa ATCC 9027; [25]) [µg/mL] | other results
1 | c1ccc(-c2ccc(Nc3ccc(-c4cc5ccc(C6=NCCN6)cc5[nH]4)cc3)cc2)nc1 [SKI-12] | 8 (≈ 18.6 µM) | 8 (≈ 18.6 µM) | 12 | 4 (≈ 9.31 µM) | 4 (≈ 9.31 µM) | 0.25 (≈ 0.582 µM) | 1 (≈ 2.33 µM) | 1 (≈ 2.33 µM) | ≤ 0.12 | 0.12 (≈ 0.279 µM) | 4 (≈ 9.31 µM) | 4 (≈ 9.31 µM) | ≤ 0.12 | 0.12 (≈ 0.279 µM) | 1 (≈ 2.33 µM) | 1 (≈ 2.33 µM) | ≤ 0.12 | 0.12 (≈ 0.279 µM) | 32 (≈ 74.5 µM) | 32 (≈ 74.5 µM) | MIC (E. coli ECM 1694; ECM1694, Table 3, starting at 4 μg/ml, read-out: MIC E. coli ECM 1694): 4 µg/mL (≈ 9.31 µM); MIC ([1]; Enterococcus faecalis, Table 3, starting at 4 μg/ml, read-out: MIC E. faecalis ATCC 29212): 0.25 µg/mL (≈ 0.582 µM); MIC ([2]; Table 3, starting at 4 μg/ml, read-out: MIC S. aureus ATCC 29213): 1 µg/mL (≈ 2.33 µM); MIC ([3]; ATCC6301, Table 3, starting at 4 μg/ml, read-out: MIC S. pneumoniae ATCC 6301): 0.12 µg/mL (≈ 0.279 µM); MIC (E. faecium CT-26; CT26, Table 3, starting at 4 μg/ml, read-out: MIC E. faecium CT-26): 0.12 µg/mL (≈ 0.279 µM); MIC S. aureus BAA-39 (S. aureus BAA-39 (MDR); Table 3, starting at 4 μg/ml): 1 µg/mL (≈ 2.33 µM); MIC ([4]; Table 3, starting at 4 μg/ml, read-out: MIC S. pneumoniae ATCC 700674): 0.12 µg/mL (≈ 0.279 µM); MIC [5, 26]: 1 µg/mL (≈ 2.33 µM); MIC [5, 27]: 1 µg/mL (≈ 2.33 µM); MIC S. aureus ATCC 33591 ([5]; Table 3, starting at 4 μg/ml): 1 µg/mL (≈ 2.33 µM); MIC (C. albicans ATCC 14053): 8 µg/mL (≈ 18.6 µM); Zone Size MRSA (MRSA): 10 mm; MIC [6, 28]: ≤ 0.12 µg/mL; MIC ([6]; Enterococcus faecium, Table 3, starting at 4 μg/ml, read-out: MIC E. faecium ATCC 700221): 0.12 µg/mL (≈ 0.279 µM); MIC [6, 29]: 0.12 µg/mL (≈ 0.279 µM); MIC (K. pneumoniae ATCC 51503; [30]): 8 µg/mL (≈ 18.6 µM); MIC (K. pneumoniae ATCC 51503; [31]): 8 µg/mL (≈ 18.6 µM)
2 | Nc1ccc(-c2ccc3cc(-c4ccc(Nc5ccc(C6=NCCN6)cc5)cc4)[nH]c3c2)cc1 [SKI-20] | > 64 | 64 (≈ 144 µM) | 8 | 64 (≈ 144 µM) | 64 (≈ 144 µM) | 32 (≈ 72.1 µM) | > 64 | 64 (≈ 144 µM) | 2 (≈ 4.51 µM) | 2 (≈ 4.51 µM) | 64 (≈ 144 µM) | > 64 | 8 (≈ 18 µM) | 8 (≈ 18 µM) | > 64 | 64 (≈ 144 µM) | 4 (≈ 9.02 µM) | 4 (≈ 9.02 µM) | 64 (≈ 144 µM) | > 64 | MIC ([1]; Enterococcus faecalis, Table 1, range 64 down to 0.12 μg/ml, read-out: MIC E. faecalis ATCC 29212): 32 µg/mL (≈ 72.1 µM); MIC [5, 26]: > 64 µg/mL; MIC [5, 27]: 64 µg/mL (≈ 144 µM); MIC (C. albicans ATCC 14053): > 64 µg/mL; Zone Size MRSA (MRSA): 9 mm; MIC [6, 28]: 16 µg/mL (≈ 36.1 µM); MIC [6, 29]: 16 µg/mL (≈ 36.1 µM); MIC (K. pneumoniae ATCC 51503; [30]): > 64 µg/mL; MIC (K. pneumoniae ATCC 51503; [31]): 64 µg/mL (≈ 144 µM)
